This note sets out measurements from ChEMBL document CHEMBL1201862, “PubChem BioAssay data set” (2004).

Test systems include U-251; SF-268; SF-539; HCT-15; KM12; SNB-19; EKVX; SW-620; UACC-62; OVCAR-5; SK-MEL-5; SN12C; OVCAR-4; RPMI-8226; NCI-H522; SK-MEL-28; UACC-257.
What all share (assay): inhibition of tumour cell growth, NCI panel, 48 h

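Protocol summary: plate cells (96-well), add compound at 5 concentrations, incubate 48 h, interpolate endpoints linearly. At the GI50, growth is halved.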 The source made the active and inactive calls. Cut-off read from the data, not from the text of the source: active = GI50 up to about 1.1 µM and inactive = higher. Where only a bound is given, the exact number is not on record here.

Regarding `COC(=O)c1c(C(=O)OC)c2cc(C(=O)c3ccccc3)ccn2c1Cl`, the GI50 in the assay with U-251 is 44.2 µM (inactive); in the assay on SF-268, 43.2 µM (inactive); in the assay on SF-539, 48.6 µM (inactive); in the assay with HCT-15, 20.9 µM; with KM12 it was 24 µM (inactive); in the assay on SNB-19, 34 µM (inactive). Besides, the GI50 was 31 µM (inactive) in the assay with EKVX; 71 µM (inactive) in the assay on SW-620; 24.9 µM (inactive) in the assay with UACC-62; 48.4 µM (inactive) in the assay with OVCAR-5; 16.2 µM (inactive) in the assay on SK-MEL-5; 49.8 µM (inactive) in the assay with SN12C. Moreover, the GI50 in the assay on OVCAR-4 is 31.2 µM (inactive); in the assay with RPMI-8226 it was 16.3 µM (inactive); in the assay on NCI-H522 it was 19.5 µM (inactive); in the assay on SK-MEL-28 it was 35.8 µM (inactive).
`Cc1nc2c(o1)/C(=N\c1ccccc1)c1ccccc1C2=O`: the GI50 with U-251 is 3.61 µM (inactive); in the assay with SF-268, 7.83 µM (inactive); in the assay with SF-539, 5.16 µM (inactive); in the assay with HCT-15 it was 8.11 µM; in the assay with KM12 it was 15.1 µM (inactive); in the assay with SNB-19, 11.5 µM (inactive). The GI50 is 14.2 µM (inactive) in the assay with EKVX; 10.7 µM (inactive) in the assay with SW-620; 3.37 µM (inactive) in the assay with UACC-62; 18.5 µM (inactive) in the assay on OVCAR-5; 2.56 µM (inactive) with SK-MEL-5; 10.1 µM (inactive) with SN12C. For the same compound, the GI50 with UACC-257 was 5.97 µM (inactive); with RPMI-8226, 5.66 µM (inactive); with NCI-H522, 4.57 µM (inactive).
With `O=C1C=C[C@@]23CC1C(O)C[C@H]2C=Cc1ccccc13` (some centres not stated), the GI50 with SF-268 was > 100 µM (inactive); in the assay with SF-539, > 100 µM (inactive); in the assay on HCT-15, 82.2 µM; with KM12 it was > 100 µM (inactive); with SNB-19, > 100 µM (inactive); in the assay with SW-620 it was > 100 µM (inactive). In addition, the GI50 in the assay with UACC-62 is 34.8 µM (inactive); with OVCAR-5, > 100 µM (inactive); in the assay on SK-MEL-5, > 100 µM (inactive); in the assay on SN12C, > 100 µM (inactive); in the assay on UACC-257 it was > 100 µM (inactive); in the assay on OVCAR-4, > 100 µM (inactive). Besides, the GI50 in the assay with RPMI-8226 and in the assay on NCI-H522 was > 100 µM (inactive) in each case.
As to `COc1cc([C@H]2c3cc4c(cc3[C@H](NCc3ccc(F)cc3)C3COC(=O)[C@H]32)OCO4)cc(OC)c1O` (some centres not stated), the GI50 with U-251 is 1.09 µM (active); in the assay on SF-268 it was 6.18 µM (inactive); in the assay with SF-539, 1.79 µM (inactive); in the assay with HCT-15, 2.29 µM; in the assay with KM12, 3.33 µM (inactive); with SNB-19 it was 2.44 µM (inactive). Moreover, the GI50 in the assay on EKVX was 6.19 µM (inactive); in the assay with SW-620 it was 1.87 µM (inactive); with UACC-62, 1.56 µM (inactive); with OVCAR-5, 8.91 µM (inactive); with SN12C, 1.96 µM (inactive); with UACC-257, 14.8 µM (inactive). Moreover, the GI50 in the assay on OVCAR-4 is 37.6 µM (inactive); with RPMI-8226, 2.31 µM (inactive); in the assay on NCI-H522, 2.43 µM (inactive); in the assay with SK-MEL-28 it was 11 µM (inactive).
For the compound `O=C1c2ccccc2C(=O)C1(Cl)C1(S(=O)(=O)O)c2ccccc2-c2ccccc21`, the GI50 in the assay on U-251 was > 100 µM (inactive); with SF-268, > 100 µM (inactive); with SF-539, > 100 µM (inactive); with HCT-15 it was above 100 µM; in the assay with KM12 it was > 100 µM (inactive); with SW-620 it was > 100 µM (inactive). Moreover, the GI50 with UACC-62, in the assay on OVCAR-5, in the assay with SK-MEL-5, in the assay on SN12C, in the assay with UACC-257 and with OVCAR-4 was > 100 µM (inactive) in each case. The GI50 in the assay on RPMI-8226, in the assay with NCI-H522 and in the assay on SK-MEL-28 was > 100 µM (inactive) each time.
For the compound `CC(=O)c1ccc(NC(=O)C(=O)C(C(=O)c2ccc(Cl)c(Cl)c2)C2OC(=O)c3ccccc32)cc1` (configuration not stated), the GI50 was 10.1 µM (inactive) with U-251; 16.3 µM (inactive) with SF-268; 16.8 µM with HCT-15; 20.1 µM (inactive) in the assay on KM12; 25.5 µM (inactive) in the assay on SNB-19; 40 µM (inactive) with EKVX. Moreover, the GI50 is 21.2 µM (inactive) with SW-620; 19.4 µM (inactive) in the assay on UACC-62; 21.5 µM (inactive) in the assay on OVCAR-5; 21.6 µM (inactive) with SN12C; 23.4 µM (inactive) in the assay on UACC-257; 26.5 µM (inactive) with OVCAR-4. For the same compound, the GI50 with NCI-H522 was 9.38 µM (inactive).
As to `O=C(c1ccccc1)N1CCN2CCN=C(c3ccccc3)C21c1ccccc1` (configuration not stated), the GI50 with U-251 is > 100 µM (inactive); in the assay with SF-539, 71.3 µM (inactive); with KM12, > 100 µM (inactive); in the assay with SNB-19, 38 µM (inactive); in the assay with EKVX, 70.8 µM (inactive); in the assay on SW-620 it was > 100 µM (inactive). In addition, the GI50 was 18.1 µM (inactive) in the assay with UACC-62; > 100 µM (inactive) in the assay on SK-MEL-5; 25.8 µM (inactive) in the assay with UACC-257; 29.4 µM (inactive) with OVCAR-4; 25.5 µM (inactive) in the assay on RPMI-8226; > 100 µM (inactive) in the assay on SK-MEL-28.
As for `COc1ccc(C(=O)O)c2c(=O)c3ccccc3[nH]c12`, the GI50 with U-251 is > 100 µM (inactive); with SF-268 it was > 100 µM (inactive); in the assay on SF-539 it was > 100 µM (inactive); in the assay with HCT-15 it was above 100 µM; with KM12, > 100 µM (inactive); in the assay on SNB-19 it was > 100 µM (inactive). In addition, the GI50 in the assay on EKVX, with SW-620, in the assay on UACC-62, in the assay on OVCAR-5, in the assay on SN12C and in the assay with UACC-257 was > 100 µM (inactive) in each case. Also, the GI50 in the assay on OVCAR-4, with RPMI-8226, with NCI-H522 and in the assay on SK-MEL-28 was > 100 µM (inactive) in each case.
`Cc1cnc2c(C)ccc([N+](=O)[O-])c2c1NCCCN(C)C`: the GI50 with U-251 was > 100 µM (inactive); in the assay on SF-268 it was > 100 µM (inactive); in the assay on SF-539 it was > 100 µM (inactive); in the assay with HCT-15, above 100 µM; with KM12 it was > 100 µM (inactive); in the assay on SNB-19, > 100 µM (inactive). The GI50 in the assay with EKVX, in the assay on SW-620, with OVCAR-5, in the assay on SN12C, in the assay on UACC-257 and with OVCAR-4 was > 100 µM (inactive) in each case. The GI50 in the assay with RPMI-8226, with NCI-H522 and with SK-MEL-28 was > 100 µM (inactive) throughout.
As for `CC(=O)NC1=C(NCCN(C)C)C(=O)c2ccccc2C1=O`, the GI50 in the assay on U-251 is 10.3 µM (inactive); in the assay with SF-268 it was 21.5 µM (inactive); in the assay with SF-539, 11.7 µM (inactive); with HCT-15, 9.51 µM; in the assay with KM12, 15.8 µM (inactive); in the assay with SNB-19 it was 17.6 µM (inactive). The GI50 was 32.9 µM (inactive) with EKVX; 16 µM (inactive) in the assay on SW-620; 10.5 µM (inactive) with UACC-62; 7.21 µM (inactive) in the assay with SK-MEL-5; 10.4 µM (inactive) in the assay on SN12C; 9.25 µM (inactive) in the assay on UACC-257. In addition, the values for the GI50 with OVCAR-4, in the assay with NCI-H522 and in the assay with SK-MEL-28 were 8.93 µM (inactive), 10.3 µM (inactive) and > 50 µM (inactive), respectively.
`CCc1cc(C(=O)OC)cn1C(=N)c1ccc(Cl)cc1`: the GI50 in the assay on U-251 was > 100 µM (inactive); with SF-268, > 100 µM (inactive); with SF-539 it was > 100 µM (inactive); with HCT-15, above 100 µM; in the assay on KM12, > 100 µM (inactive); in the assay with SNB-19 it was > 100 µM (inactive). Also, the GI50 in the assay with EKVX, in the assay on SW-620, in the assay with UACC-62, in the assay with OVCAR-5, in the assay with SK-MEL-5 and in the assay with SN12C was > 100 µM (inactive) each time. The GI50 with UACC-257, in the assay with OVCAR-4, in the assay with RPMI-8226 and with SK-MEL-28 was > 100 µM (inactive) throughout.
As to `C=CC1C(OC2OC(CO)C(O)C(O)C2O)OC=C(C(=O)OC)C1CC=O` (configuration not stated), the GI50 with U-251 is > 100 µM (inactive); in the assay with SF-268 it was > 100 µM (inactive); with SF-539, > 100 µM (inactive); in the assay with HCT-15, above 100 µM; in the assay on KM12, > 100 µM (inactive); in the assay on SNB-19 it was > 100 µM (inactive). The GI50 with EKVX is > 100 µM (inactive); in the assay on SW-620 it was 81.8 µM (inactive); in the assay on UACC-62 it was > 100 µM (inactive); with SK-MEL-5 it was > 100 µM (inactive); in the assay on SN12C, > 100 µM (inactive); in the assay with OVCAR-4 it was > 100 µM (inactive). The GI50 with RPMI-8226 and with SK-MEL-28 was > 100 µM (inactive) in each case.
With `COC1=C2C[C@H](O)C(C)C[C@@]2(OC)OC1=O` (some centres not stated), the GI50 was > 100 µM (inactive) in the assay on U-251; > 100 µM (inactive) in the assay on SF-268; > 100 µM (inactive) in the assay with SF-539; above 100 µM with HCT-15; > 100 µM (inactive) with KM12; > 100 µM (inactive) in the assay on SNB-19. Also, the GI50 in the assay with SW-620, in the assay with UACC-62, in the assay with SK-MEL-5, in the assay with SN12C, in the assay on UACC-257 and in the assay with OVCAR-4 was > 100 µM (inactive) throughout. The GI50 with RPMI-8226, with NCI-H522 and in the assay with SK-MEL-28 was > 100 µM (inactive) throughout.
